US11932657B2, “Heterocyclic compound” (priority 2018, dated 2024)

Assays:
[1] = tested on: immortalized megakaryocyte line (SeV2-MKCL); assay: Platelet production: static culturing of immortalized megakaryocyte line; assay type: cell-based; details: compound final concentration 0.1 μM, static culturing 6 to 7 days, control (DMSO) set to 1; platelets = CD41, CD42b and CD42a-positive cells
Procedure: Test Example 2 (Platelet Production: Static Culturing)
The immortalized megakaryocyte line (SeV2-MKCL) obtained according to the method described in WO 2016/204256 was washed twice with D-PBS(−) and then cultured in medium not containing doxycycline to terminate forced expression. Culturing was implemented by seeding the cells at 1 mL/well in a 24-well plate (#662160 (Greiner Rio-One)) at a seeding density of 1×10^5 cells/mL followed by static culturing in the medium indicated below.
The medium was obtained by adding the following components to IMDM serving as the basal medium (concentrations indicate final concentrations).
Culturing was implemented under conditions of 37° C. and 5% CO2. At the same time, the compound of the present invention (final concentration 0.1 μM) or DMSO (control) was added and cultured for 6 to 7 days. Thereafter, the number of platelets (CD41, CD42b, and CD42a-positive cells) was measured. The measurement method was as shown below. The same procedure was performed with the control.
A portion of the culture supernatant was harvested 6 to 7 days after culturing to terminate gene expression, and suspended with the following antibodies to stain them. eFluor 450-labeled anti-CD42a antibody (#48-0428-42 (eBioscience)) PE-labeled anti-CD42b antibody (#303906 (BioLegend)) APC-labeled anti-CD41 antibody (#303710 (BioLegend)) The number of platelets was counted using FACSVerse manufactured by BD 30 minutes after the stain reaction. In the measurement of the number of platelets, the number of cells was corrected using Flow-count beads (#7547053 (Beckman Coulter)).
The number of platelets produced from one megakaryocyte cell was calculated based on the number of platelets in the sample obtained by the FACS measurement, and the result was defined as platelet production efficiency (PLT/MK) and used for evaluation of drug efficacy of the compound. In addition, the specific activity at the time when the platelet production efficiency of the control was set to 1 was indicated as fold increase.

[2] = target: T1, aryl hydrocarbon receptor (AhR) (Homo sapiens, UniProt P35869); assay: AhR reporter gene assay (aryl hydrocarbon receptor antagonist activity, DRE-Luc HepG2 cells, TCDD-stimulated luciferase); assay type: cell-based
T1 construct: DRE-Luc HepG2 cells subcultured in a 225 cm^2 flask; endogenous in cells; host or cells: HepG2 (ATCC), stably transfected with the reporter hCYP1A1/pGL4.27 (DRE-Luc HepG2)
T1 sequence (P35869 11-848): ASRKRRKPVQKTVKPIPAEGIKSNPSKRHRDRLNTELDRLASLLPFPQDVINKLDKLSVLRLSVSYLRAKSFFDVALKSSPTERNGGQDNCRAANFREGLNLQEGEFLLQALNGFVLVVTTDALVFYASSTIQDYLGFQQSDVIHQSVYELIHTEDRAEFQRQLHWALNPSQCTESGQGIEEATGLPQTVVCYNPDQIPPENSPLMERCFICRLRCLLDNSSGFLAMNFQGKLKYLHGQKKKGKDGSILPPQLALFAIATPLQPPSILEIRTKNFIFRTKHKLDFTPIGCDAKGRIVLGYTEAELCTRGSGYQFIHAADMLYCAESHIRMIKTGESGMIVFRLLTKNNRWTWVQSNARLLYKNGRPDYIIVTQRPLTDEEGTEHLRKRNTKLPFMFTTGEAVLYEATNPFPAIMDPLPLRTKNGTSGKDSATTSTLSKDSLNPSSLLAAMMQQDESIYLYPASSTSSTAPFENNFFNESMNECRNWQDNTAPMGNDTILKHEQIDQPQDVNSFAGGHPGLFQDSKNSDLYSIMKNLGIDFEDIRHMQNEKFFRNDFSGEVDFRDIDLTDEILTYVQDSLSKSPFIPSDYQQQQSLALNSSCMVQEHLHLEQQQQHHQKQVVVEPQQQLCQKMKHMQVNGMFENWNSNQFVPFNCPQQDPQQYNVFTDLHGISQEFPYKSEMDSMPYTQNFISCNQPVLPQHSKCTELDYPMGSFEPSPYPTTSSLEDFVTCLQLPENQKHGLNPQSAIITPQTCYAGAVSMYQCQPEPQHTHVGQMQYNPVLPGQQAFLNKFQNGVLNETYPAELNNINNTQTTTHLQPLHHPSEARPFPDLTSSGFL
Procedure: Test Example 1 (Aryl Hydrocarbon Receptor Antagonist Activity)
An expression vector, hCYP1A1/pGL4.27 was introduced into HepG2 cells (derived from American Type Culture Collection (ATCC)) that were seeded in 6-well plates (#3810-006 (Iwaki)) at 1.2×10^6 cells/well, using Lipofectamine 3000 (#100022050 (Invitrogen)). Referring to Garrion P M et al., Fundam Appl Toxicol, 30, 194 (1996), the vector hCYP1A1/pGL4.27 incorporated the human CYP1A1 promotor region including dioxin responsive element (DRE) region of the AhR binding region into the XhoI-BglII restriction enzyme site of pGL4.27 (#E8451 (Promega)). After 24 hours, medium-1 was replaced, and after 48 hours, the medium-1 containing hygromycin B (200 to 1000 μg/mL) was subjected to drug treatment. Culturing using the medium containing hygromycin B was continued for about 1 month to clone 24 clones showing drug resistance. A cell line showing high reporter activity was selected (DRE-Luc HepG2) from drug resistant lines using as an indicator luciferase activity (Dual-Glo Luciferase substrate, #E297A (Promega)) relative to an AhR agonist, 2,3,7,8-tetrachlorodibenzo-p-dioxin (TCDD) (#ED-901-B (CIL.)).
DRE-Luc HepG2 cells subcultured in a 225 cm^2 flask (#11-0005 (Iwaki)) were washed with PBS (#1419-144 (Gibco), Lot: 1896207), and thereto was added 8 mL of Trypsin-EDTA (0.05%) (#25300-054 (Gibco)). Thereafter, an excessive liquid was removed from the mixture, and the cells were stood at room temperature for 5 minutes. Thereto was added 10 mL of medium-2, the cells were recovered through a cell strainer (#352350 (Falcon), 70 μm), and the number of cells were then counted using a hemocytometer. A cell suspension was prepared at 3×10^5 cells/mL, 100 μL/well of the cell suspension was seeded into a 96-well white plate (#136101, F96 Microwell (Nunc)), and the cells were then cultured in a CO2 incubator (5% CO2, 37° C.). After 24 hours, the medium was aspirated, and thereto was added 100 μL of an assay medium solution including the compound of the present invention, and the cells were cultured in the CO2 incubator (5% CO2, 37° C.). After 24 hours, 11 μL of an assay medium solution including 5×10^−10 M TCDD (#ED-901-B (CIL.)) was added thereto and the cells were cultured in the CO2 incubator (5% CO2, 37° C.). After 24 hours, 50 μL of a reaction substrate (#E253B, Steady-Glo Luciferase substrate (Promega)) for Firefly Luciferase enzyme reaction was added to each well, and after 5 minute-shaking, the light emission intensity was measured with Wallac ARVO 1420sx (PerkinElmer).

Row | Structure (SMILES) | Static (vs veh): fold increase of platelet production efficiency (PLT/MK) [1] | IC50 [2] [nM]
1 | CC1(C)COc2nc3c(NCCc4ccc(O)c(-c5ccccc5Cl)c4)nc(-c4cncc(F)c4)nc3n21 [Example 5] | 5.1 | 36
2 | CC1(C)COc2nc3c(NCCc4ccc(O)c(-c5cccc(Cl)c5)c4)nc(-c4cncc(F)c4)nc3n21 [Example 6] | 3.7 | 10
3 | CC1(C)COc2nc3c(NCCc4ccc(O)c(-c5ccc(Cl)cc5)c4)nc(-c4cncc(F)c4)nc3n21 [Example 7] | 7.3 | 9.1
4 | CC1(C)CSc2nc3c(NCCc4ccc(O)c(-c5ccccc5F)c4)nc(-c4cncc(F)c4)nc3n21 [Example 8] | 5.1 | 0.11
5 | CC1(C)CSc2nc3c(NCCc4ccc(O)c(-c5cccc(F)c5)c4)nc(-c4cncc(F)c4)nc3n21 [Example 9] | 4.9 | 0.32
6 | CC1(C)COc2nc3c(NCCc4ccc(O)c(-c5cc(F)ccc5F)c4)nc(-c4cncc(F)c4)nc3n21 [Example 10] | 5.5 | 11
7 | CC1(C)COc2nc3c(NCCc4ccc(O)c(-c5cccc(F)c5F)c4)nc(-c4cncc(F)c4)nc3n21 [Example 11] | 8.5 | 6.4
8 | CC1(C)COc2nc3c(NCCc4ccc(O)c(-c5cc(F)cc(F)c5)c4)nc(-c4cncc(F)c4)nc3n21 [Example 12] | 7.6 | 12
9 | COc1cccc(-c2cc(CCNc3nc(-c4cncc(F)c4)nc4c3nc3n4C(C)(C)CO3)ccc2O)c1 [Example 13, 4-[2-[[2-(5-fluoropyridin-3-yl)-8,8-dimethyl-7H-purino[8,9-b][1,3]oxazol-4-yl]amino]ethyl]-2-(3-methoxyphenyl)phenol] | 4.7 | 29
10 | Cc1cccc(-c2cc(CCNc3nc(-c4cncc(F)c4)nc4c3nc3n4C(C)(C)CO3)ccc2O)c1 [Example 14] | 7.9 | 11
11 | CCc1cccc(-c2cc(CCNc3nc(-c4cncc(F)c4)nc4c3nc3n4C(C)(C)CO3)ccc2O)c1 [Example 15] | 11 | 5.5
12 | CC1(C)COc2nc3c(NCCc4ccc(O)c(-c5cccc(C(F)(F)F)c5)c4)nc(-c4cncc(F)c4)nc3n21 [Example 16] | 10 | 3.9
13 | CC1(C)COc2nc3c(NCCc4ccc(O)c(-c5cccc(C#N)c5)c4)nc(-c4cncc(F)c4)nc3n21 [Example 17, 3-[5-[2-[[2-(5-fluoropyridin-3-yl)-8,8-dimethyl-7H-purino[8,9-b][1,3]oxazol-4-yl]amino]ethyl]-2-hydroxyphenyl]benzonitrile] | 7.8 | 2.3
14 | CC1(C)COc2nc3c(NCCc4ccc(O)c(-c5ccc(C#N)cc5)c4)nc(-c4cncc(F)c4)nc3n21 [Example 18] | 7.3 | 6.9
15 | CC1(C)C[S+]([O-])c2nc3c(NCCc4ccc(O)c(-c5ccccc5F)c4)nc(-c4cncc(F)c4)nc3n21 (centres unmarked) [Example 20] | 6.5 | 0.058
16 | CC1(C)C[S+]([O-])c2nc3c(NCCc4ccc(O)c(-c5cccc(F)c5)c4)nc(-c4cncc(F)c4)nc3n21 (centres unmarked) [Example 21] | 4.7 | 0.033
17 | Cc1cncc(-c2nc(NCCc3ccc(O)c(-c4ccccc4)c3)c3nc4n(c3n2)C(C)(C)CO4)c1 [Example 22] | 7.3 | 9.8
18 | Cc1cncc(-c2nc(NCCc3ccc(O)c(-c4ccccc4F)c3)c3nc4n(c3n2)C(C)(C)CO4)c1 [Example 23] | 8.0 | 9.6
19 | Cc1cncc(-c2nc(NCCc3ccc(O)c(-c4cccc(F)c4)c3)c3nc4n(c3n2)C(C)(C)CO4)c1 [Example 24] | 7.7 | 3.9
20 | Cc1cncc(-c2nc(NCCc3ccc(O)c(-c4ccc(F)cc4)c3)c3nc4n(c3n2)C(C)(C)CO4)c1 [Example 25] | 5.7 | 4.4
21 | Cc1cncc(-c2nc(NCCc3ccc(O)c(-c4ccccc4F)c3)c3nc4n(c3n2)C(C)(C)CS4)c1 [Example 26] | 5.0 | 1
22 | Cc1cncc(-c2nc(NCCc3ccc(O)c(-c4cccc(F)c4)c3)c3nc4n(c3n2)C(C)(C)CS4)c1 [Example 27] | 6.0 | 0.35
23 | C[C@@H]1CSc2nc3c(NCCc4ccc(O)c(-c5ccccc5F)c4)nc(-c4cncc(F)c4)nc3n21 [Example 28] | 9.7 | 0.4
24 | C[C@@H]1CSc2nc3c(NCCc4ccc(O)c(-c5cccc(F)c5)c4)nc(-c4cncc(F)c4)nc3n21 [Example 29] | 8.4 | 0.37
25 | C[C@H]1CSc2nc3c(NCCc4ccc(O)c(-c5ccccc5F)c4)nc(-c4cncc(F)c4)nc3n21 [Example 30] | 6.7 | 0.78
